The source of these data is ChEMBL document CHEMBL1201862, “PubChem BioAssay data set” (2004).

Some test systems named below: NCI-H23; NCI-H226; RXF 393; TK-10; HCT-116; SF-295; IGROV-1; SR; HOP-62; SK-OV-3; MDA-N; NCI/ADR-RES; OVCAR-8; K562; RPMI-8226; MDA-MB-435; SN12C; CAKI-1; SF-539; 786-0.
Assay in all cases: NCI anticancer screen, dose series, 48 h

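48-hour exposure; five concentrations; linearly interpolated endpoints. Abbreviation: GI50, concentration required for 50% inhibition of growth.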 Activity calls are given as the source filed them. Cut-off read from the data, not from the text of the source: active = GI50 up to about 1.1 µM and inactive = higher.

For `Oc1ccc2c(c1)-c1c(c3ccccc3n1CCN1CCOCC1)CC2`, the GI50 is 27.9 µM (inactive) with NCI-H23; 24.6 µM (inactive) in the test on NCI-H226; 66.7 µM (inactive) in the test with RXF 393; 28.6 µM (inactive) in the test with TK-10; 31.4 µM (inactive) in the test on HCT-116; 48.3 µM (inactive) in the test on SF-295. Further, the GI50 is 15.3 µM (inactive) in the test on IGROV-1; > 100 µM (inactive) with SR; 47 µM (inactive) with HOP-62; 27.5 µM (inactive) in the test with SK-OV-3; 33.7 µM (inactive) in the test with MDA-N; 32.7 µM (inactive) in the test with NCI/ADR-RES. Besides, the GI50 with OVCAR-8 is 33.2 µM (inactive); in the test with K562, > 100 µM (inactive); with RPMI-8226, > 100 µM (inactive); in the test on MDA-MB-435, 30.9 µM (inactive); with SN12C, > 100 µM (inactive); with CAKI-1 it was 32.6 µM (inactive). Moreover, the GI50 is 46 µM (inactive) with SF-539 and 33.7 µM (inactive) in the test on 786-0.

`O=S1(=O)c2ccccc2NC(=S)N1c1ccccc1`: the GI50 in the test with NCI-H23 was 46.3 µM (inactive); in the test with NCI-H226, 43.9 µM (inactive); in the test on RXF 393 it was > 54.2 µM (inactive); in the test on TK-10, > 72.4 µM (inactive); in the test with HCT-116 it was 45.3 µM (inactive); in the test on SF-295, 3.49 µM (inactive). Moreover, the GI50 in the test on IGROV-1 was 2.45 µM (inactive); in the test on SR, 44.8 µM (inactive); in the test on HOP-62, 7.1 µM (inactive); with SK-OV-3, > 100 µM (inactive); in the test with MDA-N, 36 µM (inactive); in the test with NCI/ADR-RES, 60.1 µM (inactive). The GI50 in the test with OVCAR-8 was 34.6 µM (inactive); in the test with K562, 49.1 µM (inactive); with RPMI-8226, > 59.2 µM (inactive); in the test on MDA-MB-435, 50.1 µM (inactive); in the test with SN12C, 62.2 µM (inactive); in the test on CAKI-1, > 72.8 µM (inactive). Besides, the GI50 was > 100 µM (inactive) with SF-539 and > 87.3 µM (inactive) in the test on 786-0.

`COc1ccc(C2SCC(=O)N2c2ccc(-c3ccc(-n4c(-c5ccccc5)nc5ccccc5c4=O)cc3)cc2)cc1OC` (stereo not given): the GI50 was > 100 µM (inactive) in the test with NCI-H23; 52.7 µM (inactive) in the test on NCI-H226; > 100 µM (inactive) in the test on RXF 393; 25.2 µM (inactive) with TK-10; 67.8 µM (inactive) in the test on HCT-116; 16.8 µM (inactive) in the test on SF-295. The GI50 is 37.7 µM (inactive) with IGROV-1; 26.2 µM (inactive) in the test on SR; 18 µM (inactive) with HOP-62; 40.3 µM (inactive) in the test with SK-OV-3; 59.7 µM (inactive) with MDA-N; 61.2 µM (inactive) in the test with NCI/ADR-RES. Moreover, the GI50 in the test with OVCAR-8 is 27.5 µM (inactive); in the test with K562, 23.3 µM (inactive); in the test with RPMI-8226, 31.7 µM (inactive); in the test with MDA-MB-435, 33.3 µM (inactive); with SN12C, > 100 µM (inactive); in the test on CAKI-1 it was 88.5 µM (inactive). The GI50 with SF-539 was 30.5 µM (inactive); in the test with 786-0, 44.4 µM (inactive).

As for `Cc1ccc(S(=O)(=O)n2cc(-c3cnc(N)c(Br)n3)c3ccccc32)cc1`, the GI50 is 1.56 µM (inactive) in the test with NCI-H23; 31.2 µM (inactive) with NCI-H226; 0.484 µM (active) in the test with RXF 393; 11.4 µM (inactive) in the test with TK-10; 0.83 µM (active) with HCT-116; 1.95 µM (inactive) in the test with SF-295. The GI50 with IGROV-1 was 1.3 µM (inactive); in the test on SR, 0.764 µM (active); in the test on HOP-62 it was 6.73 µM (inactive); with SK-OV-3, 4.26 µM (inactive); with MDA-N it was 0.246 µM (active); in the test with NCI/ADR-RES it was 2.04 µM (inactive). Also, the GI50 in the test on OVCAR-8 is 4.06 µM (inactive); with K562, 0.841 µM (active); with RPMI-8226, 1.78 µM (inactive); in the test with MDA-MB-435, 0.238 µM (active); with SN12C, 1.31 µM (inactive); with CAKI-1, 3.32 µM (inactive). For the same compound, the values for the GI50 in the test with SF-539 and in the test with 786-0 were 1.15 µM (inactive) and 2.33 µM (inactive), respectively.

`CC(C)(C)N(Cc1ccccc1)C(=O)/C=C\[S+]([O-])c1ccccc1` (stereo not given): the GI50 in the test with NCI-H23 is 2.86 µM (inactive); in the test on NCI-H226, 5.07 µM (inactive); in the test on RXF 393, 3.8 µM (inactive); with TK-10, 6.75 µM (inactive); in the test on HCT-116, 2.43 µM (inactive); with SF-295, 13.4 µM (inactive). Also, the GI50 was 4.79 µM (inactive) in the test on IGROV-1; 1.58 µM (inactive) in the test with SR; 8.24 µM (inactive) in the test with HOP-62; 7.62 µM (inactive) in the test on SK-OV-3; 2.16 µM (inactive) in the test on MDA-N; 2.55 µM (inactive) in the test on NCI/ADR-RES. The GI50 with OVCAR-8 is 1.84 µM (inactive); in the test on K562, 2.22 µM (inactive); in the test on RPMI-8226 it was 1.84 µM (inactive); in the test on MDA-MB-435, 2.65 µM (inactive); in the test on SN12C, 2.61 µM (inactive); in the test on CAKI-1 it was 5.85 µM (inactive). Moreover, the results for the GI50 in the test with SF-539 and in the test with 786-0 were 3.94 µM (inactive) and 1.83 µM (inactive), respectively.

On to `COC(=O)[C@]12CC[C@H]3CN(C(=O)OCc4ccccc4)[C@H]([C@H]31)[C@H](C(=O)OCC[Si](C)(C)C)N2S(=O)(=O)c1ccc(C)cc1`, for which the GI50 is > 100 µM (inactive) in the test on NCI-H23; > 100 µM (inactive) in the test on NCI-H226; 4.74 µM (inactive) with RXF 393; > 100 µM (inactive) in the test with TK-10; 23 µM (inactive) in the test on HCT-116; 29 µM (inactive) in the test on SF-295. The GI50 with IGROV-1 was > 100 µM (inactive); in the test with SR it was 39.2 µM (inactive); in the test with HOP-62, > 100 µM (inactive); in the test on SK-OV-3, > 100 µM (inactive); with MDA-N, 74 µM (inactive); in the test with NCI/ADR-RES, > 100 µM (inactive). Moreover, the GI50 with OVCAR-8 was > 100 µM (inactive); in the test with K562 it was 15.3 µM (inactive); with RPMI-8226 it was 8.45 µM (inactive); in the test with MDA-MB-435, > 100 µM (inactive); in the test with SN12C, > 100 µM (inactive); in the test on CAKI-1 it was > 100 µM (inactive). The GI50 in the test on SF-539 and with 786-0 was > 100 µM (inactive) throughout.
